Seven compounds from patent publication US20260034119A1, “5-METHOXY-N,N-[…][…], THEIR […], AND METHODS FOR TREATMENT OF NEUROLOGICAL, […], AND SUBSTANCE USE DISORDERS” (priority 2023, published 2026) can be followed below.

Substitutions are numbered along the chain they refer to. “Also recorded” adds a separate entry of the source. Read-outs that look alike come from different tables or passages of the source.

For data set [1], the target named is T1, MAO-A (Homo sapiens, UniProt P21397).
T1 sequence (P21397 1-527): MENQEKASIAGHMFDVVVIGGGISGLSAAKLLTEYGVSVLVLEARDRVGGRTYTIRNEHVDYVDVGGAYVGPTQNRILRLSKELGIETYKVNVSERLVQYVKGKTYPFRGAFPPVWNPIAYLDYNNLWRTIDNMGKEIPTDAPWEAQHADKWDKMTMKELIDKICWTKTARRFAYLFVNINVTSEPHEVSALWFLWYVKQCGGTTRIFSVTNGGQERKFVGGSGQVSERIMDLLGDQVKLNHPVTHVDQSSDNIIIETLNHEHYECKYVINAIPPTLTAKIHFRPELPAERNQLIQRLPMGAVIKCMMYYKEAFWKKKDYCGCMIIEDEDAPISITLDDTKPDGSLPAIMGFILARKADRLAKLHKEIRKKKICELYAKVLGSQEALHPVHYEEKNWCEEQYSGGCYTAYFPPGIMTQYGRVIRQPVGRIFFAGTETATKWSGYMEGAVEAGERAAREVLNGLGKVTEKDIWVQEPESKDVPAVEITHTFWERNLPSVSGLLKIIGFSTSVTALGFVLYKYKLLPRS
The data set is described as follows: MAO-A activity (metabolism of compound). To be noted: versus the DMT analogs.

Data set [2] addresses 5-HT2B (Homo sapiens, UniProt P41595). The data set is described as follows: IP1 functional assay 5-HT2B. The data set is classed as cell-based. To be noted: for Emax: read-out: 5-HT2B (IP1) Emax (%5-HT).
Data set [3] deals with C57BL/6J mice. The data set is described as follows: Head twitch response (HTR). The data set is classed as in vivo, mouse. The note with it: s.c., presence or absence of 5-HT1A antagonist WAY-100635. How it is done:
The head-twitch response evaluation was performed by trained observers who were blinded to both drug and dose. Mice were habituated to the testing room 30 min. The body weight of each mouse was recorded. The HTR was defined as a rapid rotational movement of the head around the longitudinal axis of the animals' body. Mice were administered with vehicle or WAY100,635 (1 mg/kg or 2 mg/kg, sc). Fifteen minutes after the pretreatment injection mice were administered either 4F, 5-MeO-MET (0.1, 0.3, 1 or 3 mg/kg, sc) or 5-MeO-MET (0.3, 1, 3, and 10 mg/kg, sc) and placed in a novel observation cage. An overhead camera (GoPro HERO9 at a 120 Hz, San Mateo, CA, US) recorded their movements. Observers scored HTR from recorded footage for the first 10-min period.

Data set [4] concerns mice. The data set is described as follows: Open field locomotor activity. The class given is in vivo, mouse. The note with it: mice, s.c.
The target of data set [5] is T2, 5-HT2A (Homo sapiens, UniProt P28223). The data set is described as follows: cell-based. The arrangement: expressed in transfected cells; host or cells: HEK293-T. The note with it: for Emax: read-out: 5-HT2A (IP1) Emax (%5-HT).
Data set [6] has as its target T3, 5-HT1A (Homo sapiens, UniProt P08908). The data set is described as follows: BRET signaling assay: 5-HT1A-mediated activation of heterotrimeric Gi1 (TRUPATH, HEK293-T).
The target of data set [7] is T4, 5-HT1A A365N (Homo sapiens, UniProt P08908, A365N).
T4 construct: expressed in transfected cells; host or cells: HEK293-T
T4 sequence (P08908 1-422 A365N): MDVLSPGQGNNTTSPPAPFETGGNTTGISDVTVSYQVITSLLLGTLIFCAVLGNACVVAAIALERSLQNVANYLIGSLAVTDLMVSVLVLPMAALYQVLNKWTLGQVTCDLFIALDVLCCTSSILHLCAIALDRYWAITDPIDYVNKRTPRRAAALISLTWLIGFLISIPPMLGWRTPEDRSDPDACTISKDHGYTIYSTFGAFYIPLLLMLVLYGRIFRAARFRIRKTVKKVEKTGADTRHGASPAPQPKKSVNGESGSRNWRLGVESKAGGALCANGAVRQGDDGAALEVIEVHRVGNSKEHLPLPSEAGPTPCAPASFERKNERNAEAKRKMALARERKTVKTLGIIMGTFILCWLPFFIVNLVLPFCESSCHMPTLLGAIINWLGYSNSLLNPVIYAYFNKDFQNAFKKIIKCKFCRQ
Nature of the data set: Gi1 BRET at mutant 5-HT1A A365N. The data set is classed as cell-based.

For data set [8], the target named is T5, 5-HT1A N386V (Homo sapiens, UniProt P08908, N386V).
T5 construct: expressed in transfected cells; host or cells: HEK293-T
T5 sequence (P08908 1-422 N386V): T4 sequence (P08908 1-422 A365N) with N365A, N386V
Nature of the data set: Gi1 BRET at mutant 5-HT1A N386V. The class given is cell-based. In general terms: Bioluminescence resonance energy transfer reports proximity on the nanometre scale.

Data set [9] deals with T6, 5-HT2A V366N (Homo sapiens, UniProt P28223, V366N).
T6 construct: expressed in transfected cells; host or cells: HEK293-T
Nature of the data set: Gq BRET at mutant 5-HT2A V366N. The class given is cell-based.

Data set [10] deals with T2, 5-HT2A. Nature of the data set: cell-based.
In data set [11] the target is T2, 5-HT2A. The note with it: relative to 5-MeO-DMT.
Data set [12] has as its target T7, human 5-HT1A (Homo sapiens, UniProt P08908).
T7 sequence (P08908 1-422): T4 sequence (P08908 1-422 A365N) with N365A
The data set is described as follows: cell-based.

Data set [13] in a line: Microsomal stability, human liver microsomes. The data set is classed as in vitro ADME. The note with it: versus the DMT analogs. How it is done:
Microsomal incubations were carried out in 96-well plates in 5 aliquots of 30 μL each (one for each time point). Liver microsomal incubation medium comprised of phosphate buffer (100 mM, pH 7.4), MgCl2 (3.3 mM), NADPH (3 mM), glucose-6-phosphate (5.3 mM), glucose-6 phosphate dehydrogenase (0.67 units/ml) with 0.42 mg of liver microsomal protein per ml. In the control reactions the NADPH-cofactor system was substituted with phosphate buffer. Test compounds (2 μM, final solvent concentration 1.6%) were incubated with microsomes at 37° C., shaking at 100 rpm. Each reaction was performed in duplicates. Five time points over 90 minutes were analyzed. The reactions were stopped by adding 5 volumes of methanol containing internal standard to incubation aliquots, followed by protein sedimentation by centrifuging at 5500 rpm for 4 minutes. Supernatants were analyzed using the HPLC system coupled with tandem mass spectrometer. The elimination constant (kel), half-life (t1/2) and intrinsic clearance (Clint) were determined in plot of […] versus time, using linear regression analysis.
In general terms: Liver microsomes are vesicles of endoplasmic reticulum, rich in cytochrome P450 enzymes.

In data set [14] the target is T3, 5-HT1A. Nature of the data set: cell-based.
Data set [15] concerns C57BL/6J mice. The data set is described as follows: Sucrose preference test after chronic social defeat stress. The data set is classed as in vivo, mouse. The note with it: stressed mice, relative to vehicle-treated animals. The source says:
The sucrose preference test is a volitional two-bottle choice procedure in which mice are given the choice between consuming water and a 1% sucrose solution. This paradigm has been used extensively to assess the effects of stress-induced anhedonia. On day 10 of CSDS mice were individually housed and habituated to two bottles containing just water. Twenty-four hours later, following the SI test, one bottle was replaced with a 1% sucrose solution (w/v) made with water from the animal vivarium. Mice had ad libitum overnight access to both bottles and preference for sucrose over water was calculated as follows: [sucrose/(sucrose+water)*100]. Data were averaged from two independent experiments. A total of 27 mice were administered vehicle (9 control, 18 stress), 27 received 4-F, 5-MeO-PyrT (9 control, 18 stress), 15 received WAY-100635 (5 control, 10 stress), and 15 received 4-F, 5-MeO-PyrT+WAY-100635 (5 control, 10 stress). More animals were used for the stressed groups due to the inherent resilience of mice to social defeat stress (Krishnan et al. 2007). Analysis of different treatment conditions of control and stressed animals was done in GraphPad Prism using two-way ANOVA.

T3 sequence (P08908 whole entry): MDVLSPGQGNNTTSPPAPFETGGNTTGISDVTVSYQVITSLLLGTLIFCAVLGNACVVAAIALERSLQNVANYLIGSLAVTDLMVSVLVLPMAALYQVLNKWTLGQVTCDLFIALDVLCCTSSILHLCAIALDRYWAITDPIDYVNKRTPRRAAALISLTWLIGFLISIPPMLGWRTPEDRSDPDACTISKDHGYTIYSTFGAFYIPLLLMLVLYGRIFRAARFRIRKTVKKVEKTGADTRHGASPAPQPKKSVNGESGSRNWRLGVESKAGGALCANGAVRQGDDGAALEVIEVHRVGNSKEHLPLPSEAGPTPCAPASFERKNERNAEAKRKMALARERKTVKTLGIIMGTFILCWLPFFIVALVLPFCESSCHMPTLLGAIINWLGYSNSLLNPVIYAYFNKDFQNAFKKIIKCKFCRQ
T2 sequence (P28223 whole entry): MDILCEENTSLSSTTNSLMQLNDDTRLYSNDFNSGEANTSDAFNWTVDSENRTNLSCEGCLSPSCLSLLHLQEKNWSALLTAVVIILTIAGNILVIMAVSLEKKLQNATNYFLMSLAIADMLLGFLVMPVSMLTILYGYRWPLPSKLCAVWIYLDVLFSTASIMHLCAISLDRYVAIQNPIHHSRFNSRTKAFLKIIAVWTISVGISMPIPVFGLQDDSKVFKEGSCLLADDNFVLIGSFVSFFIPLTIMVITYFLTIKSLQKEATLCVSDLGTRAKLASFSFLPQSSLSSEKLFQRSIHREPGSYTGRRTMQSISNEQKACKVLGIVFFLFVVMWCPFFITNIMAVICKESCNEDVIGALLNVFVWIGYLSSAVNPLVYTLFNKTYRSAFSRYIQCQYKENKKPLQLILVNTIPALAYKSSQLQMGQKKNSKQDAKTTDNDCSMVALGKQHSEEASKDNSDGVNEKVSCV
Chain of 5-HT2B (P41595 whole entry, species assumed): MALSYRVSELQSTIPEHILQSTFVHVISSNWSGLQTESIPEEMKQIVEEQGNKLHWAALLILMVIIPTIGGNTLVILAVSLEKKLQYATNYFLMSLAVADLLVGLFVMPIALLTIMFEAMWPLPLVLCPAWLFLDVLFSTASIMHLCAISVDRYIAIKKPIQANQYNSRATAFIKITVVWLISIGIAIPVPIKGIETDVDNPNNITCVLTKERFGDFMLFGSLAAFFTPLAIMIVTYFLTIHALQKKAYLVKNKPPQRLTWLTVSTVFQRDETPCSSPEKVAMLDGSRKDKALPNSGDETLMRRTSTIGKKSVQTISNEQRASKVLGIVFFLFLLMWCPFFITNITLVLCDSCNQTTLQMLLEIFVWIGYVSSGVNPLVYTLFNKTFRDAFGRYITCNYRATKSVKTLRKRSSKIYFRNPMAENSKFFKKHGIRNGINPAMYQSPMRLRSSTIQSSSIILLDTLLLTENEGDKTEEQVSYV
T6 sequence (P28223 whole entry V366N): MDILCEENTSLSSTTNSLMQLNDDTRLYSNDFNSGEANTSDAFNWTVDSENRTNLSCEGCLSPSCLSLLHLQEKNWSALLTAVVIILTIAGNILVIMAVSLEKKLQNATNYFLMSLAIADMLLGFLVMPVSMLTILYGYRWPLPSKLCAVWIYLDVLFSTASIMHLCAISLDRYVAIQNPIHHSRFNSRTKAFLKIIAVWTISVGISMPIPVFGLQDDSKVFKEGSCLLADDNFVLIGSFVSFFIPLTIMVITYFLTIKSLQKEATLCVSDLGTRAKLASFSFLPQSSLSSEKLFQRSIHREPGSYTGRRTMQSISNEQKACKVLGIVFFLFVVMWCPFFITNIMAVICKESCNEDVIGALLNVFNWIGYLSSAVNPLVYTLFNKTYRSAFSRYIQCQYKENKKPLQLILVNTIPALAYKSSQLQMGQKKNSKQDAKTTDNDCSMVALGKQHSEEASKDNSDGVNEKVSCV

On to `C=CCN(C)CCc1c[nH]c2ccc(OC)c(F)c12` [4-F, 5-MeO MALT], for which the “MAO A metabolism” value in data set [1] is recorded as “markedly slower MAO A metabolism versus the DMT analogs”.
In general, EC50 refers to the concentration giving half of the maximal effect. A word on the Emax: it is the size of the effect at its maximum, as opposed to the concentration needed. In the case of `CCN(C)CCc1c[nH]c2ccc(OC)cc12` [Compound 5-MeO-MET], the EC50 in [2] (Table 3, read-out: 5-HT2B (IP1) EC50) is 0.13 µM; in data set [5], 0.096 µM; in data set [6] (Gi BRET EC50) it was 25.9 nM. In addition, the Emax in data set [2] (Table 3) was 62%; in data set [5], 107%. Besides, in data set [3], the “head-twitch response (HTR), measure of 5-HT2A-mediated hallucinogenic activity” value is recorded as “robust HTR in the presence of WAY100; also recorded: robust dose-dependent activity”. In [4], the “locomotor suppression in the open field (OF) test” value is on record as “dose-dependent locomotor suppression”.
For `COc1ccc2[nH]cc(CCN3CCCC3)c2c1` [Compound 18, 5-methoxy-N,N-pyrrolidinyl-tryptamine], the EC50 in data set [7] (EC50 (nM), Gi1 BRET, 5-HT1A A365N^6.55) amounted to 28.9 nM; in [8] it was 0.0249 µM; in [9] it was 0.0556 µM; in [10] (EC50 (nM), Gq BRET, 5-HT2A WT), 81.5 nM; in data set [6] (EC50 (nM), Gi1 BRET, 5-HT1A WT), 2.13 nM; in data set [6] (Gi BRET EC50), 2.1 nM. Besides, the “selectivity for 5-HT1A>5-HT2A” value in [6] (5-HT1A Gi BRET vs 5-HT2A Gq BRET) is listed as greater than 38 fold. The “increase in 5-HT1A>5-HT2A selectivity” value in data set [6] (cyclization of the amine moiety, relative to 5-MeO-DMT) was roughly 38 fold.
Take `COc1ccc2[nH]cc(CCN(C)C)c2c1F` [Compound 25, 2-(4-fluoro-5-methoxy-1H-indol-3-yl)-N,N-dimethylethane-1-amine]: the EC50 is 20.1 nM in data set [7]; 0.00371 µM in [8]; 0.392 µM in data set [9]; 0.000186 µM in data set [12]; 86.5 nM in data set [10]; 86.5 nM in [10] (EC50 (nM), Gq BRET, 5-HT2A WT). The EC50 in data set [6] (EC50 (nM)) and in [6] (EC50 (nM) 5-HT1A BRET Gi1) was 1.77 nM in each case. The “decrease in potency at 5-HT2A” value in data set [11] was 3 fold. In data set [6], the “Efficacy as %5HT (SEM) 5-HT1A BRET Gi1” value is 103.5 1.59) %5HT. For the same compound, the “increase in signaling potency at 5-HT1A” value in [6] is on record as 14 fold.
With `CCCN(C)CCc1c[nH]c2ccc(OC)c(F)c12` [Compound 28, N-(2-(4-fluoro-5-methoxy-1H-indol-3-yl)ethyl)-N-methylpropan-1-amine], the EC50 in data set [2] is 0.072 µM; in data set [12], 0.000417 µM; in data set [14] it was 0.00306 µM; in data set [10], 115 nM; in data set [5], 0.25 µM. Also, the Emax amounted to 47% in data set [2] (Table 3) and 106% in data set [5]. Besides, the “microsomal stability in human microsomes” value in data set [13] is reported as “greater stability in human microsomes versus the DMT analogs”. In addition, in data set [1], the “MAO A metabolism” value was “markedly slower MAO A metabolism versus the DMT analogs”.
On to `CCCN(CCC)CCc1c[nH]c2ccc(OC)c(F)c12` [Compound 30, N-(2-(4-fluoro-5-methoxy-1H-indol-3-yl)ethyl)-N-propylpropan-1-amine], for which the EC50 in data set [2] turned out to be 0.099 µM; in data set [12] it was 0.00131 µM; in data set [14], 0.0037 µM; in [10], 142 nM; in [5], 0.18 µM. Besides, the Emax in [2] (Table 3) was determined as 86%; in data set [5], 100%. In data set [13], the “microsomal stability in human microsomes” value is “greater stability in human microsomes versus the DMT analogs”. The “MAO A metabolism” value in data set [1] was “markedly slower MAO A metabolism versus the DMT analogs”.
Consider `COc1ccccc1N1CCN(CCN(C(=O)C2CCCCC2)c2ccccn2)CC1` [WAY-100635, reference compound], for which the sucrose preference entry in data set [15] was “not statistically significant”.
